Test results as given in patent US5206236A, “Method for the treatment of malaria” (priority 1991, dated 1993).
“Also recorded” adds a separate entry of the source. Like-named read-outs stand apart in the source and are kept apart here.

Legend:
Format in all cases: cell-based
[1] = tested on: Plasmodium falciparum strain W2 (chloroquine-resistant, mefloquine-sensitive); assay: In vitro drug sensitivity assay (3H-hypoxanthine incorporation), strain W2; conditions: for IC50: Plasmodium falciparum
Description: (§1) Plasmodium falciparum strains W2 (chloroquine-resistant, mefloquine-sensitive) and D6 (mefloquine-resistant, chloroquine-sensitive)were cultured in a medium consisting of RPMI-1640, 25 mM HEPES, 25 mM NaHCO3, and 10% (v/v) fresh frozen human plasma. Into the wells of a 96 well microtiter plate there was placed 200 ul per well of a 1.5% erythrocyte suspension containing 0.2% to 0.4% parasitized erythrocytes containing serial dilutions of the test compounds. The plate was then placed in an anaerobic chamber, flushed with nitrogen gas and incubated at 37° C. After 24 hours, 25 ul per well of G-^3 H-hypoxanthine (1 mCi/ml) were added and the plate reincubated as above. After 42 hours, the cells were harvested with a multimash-type cell harvester onto glass microfiber paper. A scintillation counter was used to determine the incorporated of ^3 H-hypoxanthine. The activities of the compounds tested were determined by comparing the incorporation of ^3 H-hypoxanthine to drug concentration using computerized non-linear regression analysis. [Antimicrob. Agents Chemother. 16:710, 1979; Am.J.Trop.Med.Hygiene 34:209, 1985].

[2] = tested on: Plasmodium falciparum strain D6 (mefloquine-resistant, chloroquine-sensitive); assay: In vitro drug sensitivity assay (3H-hypoxanthine incorporation), strain D6; conditions: for IC50: Plasmodium falciparum
Description: as §1

[3] = tested on: Plasmodium falciparum strains W2 and D6; assay: In vitro drug sensitivity assay, overall efficacy over both strains; conditions: qualitative
Description: as §1

[4] = strain W2, 3H-hypoxanthine incorporation, 42 hours, 37° C, read-out: IC50 (uM), W2
[5] = strain D6, 3H-hypoxanthine incorporation, 42 hours, 37° C, read-out: IC50 (uM), D6

SMILES | IC50 [1, 4] [µM] | IC50 [2, 5] [µM] | also measured
c1cc(C2=NCCN2)ccc1OCCCCCOc1ccc(C2=NCCN2)cc1 [Example 15] | 0.104 | 0.023 | efficacy against malaria (in words) [3]: Very close in therapeutic efficacy against malaria
N=C(N)c1ccc(OCCCCCOc2ccc(C(=N)N)cc2)cc1 [Example 4, reference compound] |  |  | IC50 ([1]; W2, read-out: IC50 (uM), W2): 0.083 µM; IC50 ([2]; D6, read-out: IC50 (uM), D6): 0.038 µM; efficacy against malaria (in words) [3]: moderately effective against malaria
COc1cc(C(=N)N)ccc1OCCCOc1ccc(C(=N)N)cc1OC [Example 1] | 0.065 | 0.077 | 
N=C(N)c1ccc(OCCCCCCOc2ccc(C(=N)N)cc2)cc1 [Example 9] | 0.345 | 0.118 | 
N=C(N)c1cccc(OCCCCOc2cccc(C(=N)N)c2)c1 [Example 12] | 0.043 | 0.046 | efficacy against malaria (in words) [3]: Very close in therapeutic efficacy against malaria
COc1cc(C2=NCCN2)ccc1OCCCOc1ccc(C2=NCCN2)cc1OC [Example 17] | 0.06 | 0.1 | 
CN1CCN=C1c1ccc(OCCCCCOc2ccc(C3=NCCN3C)cc2)cc1 [Example 16] | 1.82 | 0.089 | 
N=C(N)c1ccc(OCCCCCOc2ccc(C(=N)N)cc2[N+](=O)[O-])c([N+](=O)[O-])c1 [Example 5] |  |  | IC50 ([1]; W2, read-out: IC50 (uM), W2): 0.069 µM; IC50 ([2]; D6, read-out: IC50 (uM), D6): 0.071 µM
N=C(N)c1ccc(OCCCCCOc2ccc(C(=N)N)cc2Cl)c(Cl)c1 [Example 10] | 0.165 | 0.107 | 
N=C(N)c1ccc(NCCCCNc2ccc(C(=N)N)cc2)cc1 [Example 2] | 0.057 | 0.025 | 
N=C(N)c1cccc(OCCCOc2cccc(C(=N)N)c2)c1 [Example 11] | 0.156 | 0.194 | 
N=C(N)c1cccc(OCCCCCCOc2cccc(C(=N)N)c2)c1 [Example 14] | 0.125 | 0.132 | 
N=C(N)c1ccc(OCCCCCOc2ccc(C(=N)N)cc2N)c(N)c1 [Example 6] | 0.076 | 0.046 | 
N=C(N)c1ccc(NCCCCCNc2ccc(C(=N)N)cc2)cc1 [Example 8] | 0.022 | < 0.02 | efficacy against the chloroquine-resistant strain (W2) (in words) ([1]; qualitative): most effective compound; efficacy against the mefloquine-resistant strain (D6) (in words) ([2]; qualitative): most effective compound; efficacy against malaria (in words) [3]: most efficacious product identified to date; also recorded: best compound for treating both strains of Plasmodium falciparum
N=C(N)c1cccc(OCCCCCOc2cccc(C(=N)N)c2)c1 [Example 13] | 0.08 | 0.069 | 
c1cc(C2=NCCN2)ccc1OCCCOc1ccc(C2=NCCN2)cc1 [Example 18] | 0.06 | 0.025 | efficacy against malaria (in words) [3]: Very close in therapeutic efficacy against malaria
COc1cc(C(=N)N)ccc1OCCCCCOc1ccc(C(=N)N)cc1OC [Example 7] | 0.066 | 0.106 | 
N=C(N)c1ccc(OCCCCOc2ccc(C(=N)N)cc2)cc1 [Example 3] | 0.12 | 0.057 | 
